Measurements reported in US12240841B2, “FXR small molecule agonist and preparation method therefor and use thereof” (Shanghai Institute of Materia Medica, Chinese Academy of …, priority 2019, dated 2025).

How the values were obtained:
[1] = target: T1, recombinant GST-FXR fusion protein (Homo sapiens, UniProt Q96RI1); assay: FXR activity at the molecular level (AlphaScreen); type: biochemical
T1 sequence (Q96RI1 1-486): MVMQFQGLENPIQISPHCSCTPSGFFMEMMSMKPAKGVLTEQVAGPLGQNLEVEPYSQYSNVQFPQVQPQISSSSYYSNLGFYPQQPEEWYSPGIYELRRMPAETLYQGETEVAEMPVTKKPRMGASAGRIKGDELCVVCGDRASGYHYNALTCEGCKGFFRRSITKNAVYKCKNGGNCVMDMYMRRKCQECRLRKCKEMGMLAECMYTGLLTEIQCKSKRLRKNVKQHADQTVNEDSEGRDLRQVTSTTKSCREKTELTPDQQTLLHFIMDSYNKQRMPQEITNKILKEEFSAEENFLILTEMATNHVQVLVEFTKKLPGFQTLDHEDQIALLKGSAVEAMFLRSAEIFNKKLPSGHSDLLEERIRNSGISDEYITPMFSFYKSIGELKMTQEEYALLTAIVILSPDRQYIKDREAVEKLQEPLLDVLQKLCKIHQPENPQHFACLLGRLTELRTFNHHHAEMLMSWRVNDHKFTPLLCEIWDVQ
Protocol: Test Method for FXR Activity at the Molecular Level
FXR activity was determined using recombinant GST-FXR fusion protein by Perkin Elmer's AlphaScreen detection reagent. The reaction in this method was carried out in a 384-well plate, and the total reaction volume was 15 μL. The mixture of protein, agonist, co-regulatory factor, AlphaScreen® acceptor beads and AlphaScreen® donor beads was reacted in a buffer containing Tris-HCl 50 mM (pH7.4), 50 mM NaCl, BSA 0.1%, and 1 mM DTT. The FXR activity was reflected by the fluorescence signal intensity at 570 nm wavelength detected by the Envision fluorescence detector. The value of EC50 was calculated by the software Graphpad Prism 5.

[2] = tested on: TAA-induced hepatic fibrosis model rats; assay: TAA-induced hepatic fibrosis model rats; type: in vivo, rat
Protocol: 1) Pharmacodynamic Evaluation of Compound 1 (LXF-32) on TAA-Induced Hepatic Fibrosis Model Rats
In this experiment, TAA induced hepatic fibrosis model rats were used to investigate the effect of long-term oral administration of compound 1 on hepatic fibrosis in the model rats.
Experimental method: Male SD rats were intraperitoneally injected with thioacetamide (TAA, dissolved in normal saline) at a dose of 150 mg/kg three times a week to induce a liver fibrosis model. Four weeks after the model was made, the blood was taken from the retro-ocular venous plexus of the rats to detect serum ALP indicators. […] During the administration period, the animal's food intake and body weight were monitored. After 2 weeks of administration, the blood was taken from the retro-ocular venous plexus of the rats to detect serum ALP indicators. After 4 weeks of administration, the blood was taken from the retro-ocular venous plexus and the rats were dislocated and sacrificed. The livers were taken out and weighed. Part of the liver was fixed with 4% paraformaldehyde, and part of the liver was frozen at −80° C. During the whole experiment, another 8 rats in the same cage were injected intraperitoneally with the same volume of normal saline as the system normal control group (WT). This experiment detected indicators such as the level of liver function index ALP in serum, the expression of α-SMA and Col1α1 (fibrosis-related genes) gene level in the liver, the content of hydroxyproline (a characteristic amino acid of collagen) in the liver, and the pathological changes of the liver (Sirius scarlet stain), etc., thereby reflecting whether the compound has the effect of relieving liver fibrosis.

FXR receptor = target: T2, FXR receptor (Homo sapiens, UniProt Q96RI1); assay: FXR activity at the cell level (FXRE luciferase reporter in 293T cells); type: cell-based; settings: 293T cells; for Activity relative to OCA (%) 10 μM: luciferase reporter; for EC50: FXRE luciferase reporter, read-out: EC50 (cell level)
T2 construct: expressed in transfected cells; host or cells: 293T cells
T2 sequence (Q96RI1 1-486): T1 sequence (Q96RI1 1-486)
Protocol: The cells were cultured for 24 hours to ensure plasmid expression. Then the FXR receptor agonist to be tested was added and acted for 18 hours. The fluorescence intensity was detected using luciferase kit (steady-Glo Luciferase Assay system) to reflect the compound's activation efficiency on the FXR receptor. […] The appropriate concentration interval was selected, and the dose-dependent relationship, that is, the EC50 value, was calculated.

[3] = tested on: CCL4-induced hepatic fibrosis model mice; assay: CCL4-induced hepatic fibrosis model mice; type: in vivo, mouse
Protocol: In this experiment, CCL4 induced hepatic fibrosis model mice were used to investigate the effect of long-term oral administration of compound 8 on hepatic fibrosis in the model mice.
Experimental method: Male C57BL/6j mice were injected intraperitoneally with 2 mL/kg, 10% CCl4 (dissolved in olive oil) three times a week to induce liver fibrosis model. Two weeks after the model was made, the blood was taken from the retro-ocular venous plexus of the mice to detect serum ALT, AST, TBA and LDH indicators. According to ALT, AST, TBA, LDH, body weight and other indicators, the mice were randomly divided into 5 groups. […] During the administration period, the animals' food intake and body weight were monitored. After 3 weeks of administration, the blood was taken from the retro-ocular venous plexus of the mice to detect serum ALT, AST, TBA and LDH indicators. After 6 weeks of administration, the blood was taken from the retro-ocular venous plexus and the mice were dislocated and sacrificed. The livers were taken out and weighed. Part of the liver was fixed with 4% paraformaldehyde, and part of the liver was frozen at −80° C. During the whole experiment, another 10 mice in the same cage were intraperitoneally injected with the same volume of olive oil as the system normal control group (WT).
This experiment detected indicators such as the levels of liver function indicators ALT, AST, TBA, LDH in serum, the expression of α-SMA and Col1α1 gene levels in the liver, and the pathological changes of the liver (Sirius scarlet stain), etc., thereby reflecting whether the compound has the effect of relieving liver fibrosis.

[4] = 20 mg/kg oral once a day, 4 weeks
[5] = high-dose 20 mg/kg oral once a day, 6 weeks
[6] = low-dose 6 mg/kg oral once a day, 6 weeks

O=c1[nH]c(-c2cccc(N3CCC(OCc4c(-c5c(Cl)cccc5Cl)noc4C4CC4)CC3)c2)no1 [Example 1]
EC50 [1]: 446 nM | collagen content in the liver (Sirius scarlet stained sections) [2, 4]: reduced the collagen content in the liver, because there were large differences within the model group, and there was no statistical difference | content of hydroxyproline in liver tissue [2, 4]: reduced | expression of Col1α1 mRNA in liver tissue [2, 4]: significantly down-regulated | expression of α-SMA mRNA in liver tissue [2, 4]: significantly down-regulated | level of ALP in serum ([2]; 20 mg/kg oral once a day, 4 weeks, vs model control): significantly reduced | effect on liver fibrosis (summary) ([2]; long-term administration): a certain alleviating effect | Activity relative to OCA (%) 10 μM (FXR receptor): 109% | EC50 (FXR receptor): 110 nM

O=c1[nH]c(-c2ccc(N3CCC(OCc4c(-c5ccccc5C(F)(F)F)noc4C4CC4)CC3)cc2)no1 [Example 8]
collagen content in the liver (Sirius scarlet stained sections) ([3]; high-dose 20 mg/kg): significantly reduced | effect on LDH in serum [3, 5]: little effect | level of ALT in serum [3, 5]: significantly reduced | level of AST in serum [3, 5]: significantly reduced | level of TBA in serum [3, 5]: significantly reduced | expression of col1α1 in the liver ([3]; high-dose 20 mg/kg, 6 weeks): down-regulated | expression of α-SMA in the liver ([3]; high-dose 20 mg/kg, 6 weeks): significantly down-regulated | effect on liver fibrosis (summary) ([3]; long-term administration): a certain alleviating effect | collagen content in the liver (Sirius scarlet stained sections) ([3]; low-dose 6 mg/kg): significantly reduced | effect on liver collagen content compared with the low-dose OCA group ([3]; low-dose 6 mg/kg): slightly better | effect on LDH in serum [3, 6]: little effect | level of ALT in serum [3, 6]: significantly reduced | level of AST in serum [3, 6]: significantly reduced | level of TBA in serum [3, 6]: significantly reduced | effect on serum liver function indicators compared with the low-dose OCA group ([3]; low-dose 6 mg/kg, 6 weeks): slightly better | EC50 [1]: 104 nM | Activity relative to OCA (%) 10 μM (FXR receptor): 88% | EC50 (FXR receptor): 5 nM

O=c1[nH]c(-c2ccc(N3C4CCC3CC(OCc3c(-c5ccccc5C(F)(F)F)noc3C3CC3)C4)cc2F)no1 (stereo not shown) [Example 37]
EC50 [1]: 50.6 nM | Activity relative to OCA (%) 10 μM (FXR receptor): 102% | EC50 (FXR receptor): 0.284 nM

O=c1[nH]c(-c2ccc(N3C4CCC3CC(OCc3c(-c5ccccc5OC(F)(F)F)noc3C3CC3)C4)cc2F)no1 (stereo not shown) [Example 38]
EC50 [1]: 51.3 nM | Activity relative to OCA (%) 10 μM (FXR receptor): 102% | EC50 (FXR receptor): 0.304 nM

O=c1[nH]c(-c2ccc(N3C4CCC3CC(OCc3c(-c5ccccc5OC(F)F)noc3C3CC3)C4)nc2)no1 (stereo not shown) [Example 39]
EC50 [1]: 25 nM | Activity relative to OCA (%) 10 μM (FXR receptor): 108% | EC50 (FXR receptor): 1.49 nM

Cc1ccccc1-c1noc(C2CC2)c1COC1CC2CCC(C1)N2c1ccc(-c2noc(=O)[nH]2)cn1 (stereo not shown) [Example 40]
EC50 [1]: 94.4 nM | Activity relative to OCA (%) 10 μM (FXR receptor): 105% | EC50 (FXR receptor): 2.11 nM

O=c1[nH]c(-c2ccc(N3C4CCC3CC(OCc3c(-c5ccccc5OC(F)F)noc3C3CC3)C4)cc2F)no1 (stereo not shown) [Example 41]
EC50 [1]: 28.5 nM | Activity relative to OCA (%) 10 μM (FXR receptor): 108% | EC50 (FXR receptor): 0.718 nM

Cc1ccccc1-c1noc(C2CC2)c1COC1CC2CCC(C1)N2c1ccc(-c2noc(=O)[nH]2)c(F)c1 (stereo not shown) [Example 42]
EC50 [1]: 80.4 nM | Activity relative to OCA (%) 10 μM (FXR receptor): 106% | EC50 (FXR receptor): 0.96 nM

CC[C@H]1[C@@H](O)[C@@H]2[C@H](CC[C@]3(C)[C@@H]([C@H](C)CCC(=O)O)CC[C@@H]23)[C@@]2(C)CC[C@@H](O)C[C@@H]12 [OCA, reference compound]
level of ALT in serum [3, 5]: significantly reduced | level of AST in serum [3, 5]: significantly reduced | level of TBA in serum [3, 5]: significantly reduced | level of TBA in serum [3, 6]: lowering effect
